From publication PMC3579865, “An Albumin-Derived Peptide Scaffold Capable of Binding and Catalysis” (PLoS ONE, 2013)

Target: T1, human serum albumin (HSA) (Homo sapiens, UniProt P02768)
T1 construct: gene ALB; native full-length HSA, essentially fatty acid free; also measured on GST-HSA100 (A194 to E294)
Assay: tryptophan fluorescence quenching titration (Stern-Volmer and Hill analysis)
Type: binding

T1 sequence (P02768 25-609): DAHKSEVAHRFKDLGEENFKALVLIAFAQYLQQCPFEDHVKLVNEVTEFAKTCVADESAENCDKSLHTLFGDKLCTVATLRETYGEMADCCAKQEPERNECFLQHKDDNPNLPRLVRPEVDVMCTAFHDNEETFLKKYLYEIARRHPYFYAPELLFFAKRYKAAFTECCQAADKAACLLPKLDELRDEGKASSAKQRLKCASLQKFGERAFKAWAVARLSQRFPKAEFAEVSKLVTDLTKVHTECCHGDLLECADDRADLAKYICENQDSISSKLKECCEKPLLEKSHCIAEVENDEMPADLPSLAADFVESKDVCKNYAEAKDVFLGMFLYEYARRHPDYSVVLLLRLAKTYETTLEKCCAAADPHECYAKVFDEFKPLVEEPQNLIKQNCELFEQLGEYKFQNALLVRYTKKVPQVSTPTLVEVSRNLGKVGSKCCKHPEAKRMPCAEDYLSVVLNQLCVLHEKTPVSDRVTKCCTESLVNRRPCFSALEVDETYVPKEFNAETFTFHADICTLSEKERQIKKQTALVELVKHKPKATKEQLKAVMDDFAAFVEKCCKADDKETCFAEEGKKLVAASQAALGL

Efavirenz / HSA: 1.89±0.04 10^−4 molL^−1
Structure (SMILES): O=C1Nc2ccc(Cl)cc2[C@@](C#CC2CC2)(C(F)(F)F)O1 [2a, efavirenz]
